The test system of one series is Collagen Type 1. Description: Mouse laser irradiation model: EMT assessment, Collagen Type 1 staining. The settings on record: 25 mg/kg orally once a day for three weeks. It is filed as in vivo. The protocol: It is known that laser irradiation of a mouse ocular fundus induces choroidal angiogenesis and EMT (Reference document: Ishikawa, et al, Exp Eye Res. 2016 January; 142:19.25). So, zaltoprofen was assessed for the suppressive effect of CNV and EMT by using a mouse laser irradiation model. A zaltoprofen suspension was prepared by stirring 0.15 g of zaltoprofen (available from TOKYO CHEMICAL […] CO., LTD.) and 0.75 g of gum arabic (available from Wako Pure Chemical Industries, Ltd.) in 60 mL of water. A medium (Vehicle) was prepared by dissolving and stirring 0.75 g of gum arabic in 60 mL of water. Then, an ocular fundus of a C57BL/6J mouse (8-week old, N=13) was laser-irradiated at four points for each eye under a slit lump using a multi-color laser light coagulator. From directly after irradiation, a vehicle or a zaltoprofen solution (25 mg/kg) was orally administered once a day for three weeks, and the following assessments were conducted. For (1) and (3), the same individual was used. After three weeks from laser irradiation, mice were euthanatized by cervical dislocation, and eyeballs were extracted, and dipped and fixed in 4% paraformaldehyde phosphate buffer (Wako Pure Chemical Industries, Ltd.). […] The specimen was subjected to photography of a stained image by the anti-Collagen Type 1 antibody under a microscope, and then quantitatively assessed.

The subject of a further series is mouse. Description: In vivo model test for drusen suppression (TNF-a induced drusen-like structure in retinal region). The note with it: oral, 14 days; oxaprozin 600 mg/kg/day, epalrestat 600 mg/kg/day, zaltoprofen 40 mg/kg/day. The procedure: In the vicinity of the retina in the posterior segment of eyeball of mouse, 400 ng of Recombinant Mouse TNF-a (R&D Systems, # 410-MT) was administered. After two weeks from administration, an eye ball was extracted, and a formalin-fixed, paraffin-embedded block was prepared. The tissue sample was deparaffinized by treating three times with xylene for 5 minutes each, twice with 100% ethanol for 1 minute each, with 90% ethanol for 1 minute, with 80% ethanol for 1 minute, with 70% ethanol for 1 minute, and with water for 5 minutes. Staining was conducted with a Mayer' s hematoxylin solution for 4 minutes, and with an eosin liquid for 1 minute. After treating for 5 minutes in flowing water, treatments were conducted with 70% ethanol for 1 minute, with 80% ethanol for 1 minute, with 90% ethanol for 1 minute, twice with 100% ethanol for 1 minute each, and three times with xylene for 5 minutes each, followed by mounting with Marinol. After drying for 15 minutes or more at room temperature, the untreated RPE cells, and the RPE cells in which inflammation is induced were observed. An eyeball tissue segment was prepared from a block. After incubation for 30 minutes in a gas-phase incubator at 56° C., the tissue sample was deparaffinized by treating three times with xylene for 5 minutes each, twice with 100% ethanol for 1 minute each, with 90% ethanol for 1 minute, with 80% ethanol for 1 minute, with 70% ethanol for 1 minute, and with water for 5 minutes. After removing a melanin pigment in tissues using Delicate Melanin Bleach Kit for Special Stains and IHC (Polysciences, # 24909-1) according to the manufacturer's protocol, a microwave treatment using a citrate buffer pH 6.0 was conducted for 10 minutes to activate the antigen. After standing still for 30 minutes at room temperature, treatments were conducted with PBS for 5 minutes, with a 3% hydrogen peroxide/PBS solution for 5 minutes, and with PBS for 5 minutes to inactivate an endogenous peroxidase. The sample was stood still in a 3% BSA/PBS solution for 30 minutes at room temperature to block the tissues. As primary antibodies, an anti-E-Cadherin antibody (BD Biosciences, # 610182) that was 500-fold diluted with a 1.5% BSA/PBS solution, and an anti-Cytokeratin antibody (Sigma, # C2931) that was 1000-fold diluted, and an anti-Fibronectin antibody (abcam, # 45688) that was 1000-fold diluted, and an anti-Vimentin antibody (Cell signaling Technology, # 5741) that was 100-fold diluted were added in an amount of 200 μL per one tissue, and caused to react with the tissues for 17 hours at 4° C. The tissues reacted with the primary antibodies were washed three times with PBS for 5 minutes each, then caused to react with a secondary antibody (a Mouse on Mouse (M. O. M.) Elite Peroxidase Kit (Vector Laboratories, # PK-2200) for the anti-E-Cadherin antibody and the anti-Cytokeratin antibody, and a VECTASTAIN Elite ABC Rabbit IgG Kit (Vector Laboratories, # PK-6101) for the anti-Fibronectin antibody and the anti-Vimentin antibody) for 30 minutes at room temperature, then washed three times with PBS for 5 minutes each, and then subjected to an ABC reaction for 30 minutes at room temperature according to the manufacturer's protocol. After washing the tissues three times with PBS for 5 minutes each, color development was caused for 3 minutes at room temperature using an ImmPACT AMEC Red Peroxidase (HRP) Substrate (Vector Laboratories, # SK-4285). The color-developed tissues were stained by using a New hematoxylin Type M (MUTO PURE CHEMICALS CO., LTD., # 30141), and then stood still in flowing water for 3 minutes, and treated with 70% ethanol for 1 minute, with 80% ethanol for 1 minute, with 90% ethanol for 1 minute, twice with 100% ethanol for 1 minute each, and three times with xylene for 5 minutes each, and mounted with the use of Marinol. After drying for 15 minutes or more at room temperature, observation was conducted. […]

The conditions of series [1]: cited from earlier work.
Where [2] appears, read: Table 3, from the interview form and the package insert of each drug, read-out: Cmax.
The mark [3] stands for this setting: quoted in Test examples 2-3, 2-4, 2-5, read-out: Cmax (as quoted in the VEGF test examples).

Read-outs that look alike come from different tables or passages of the source.

As to `CC(C(=O)O)c1ccc2c(c1)CC(=O)c1ccccc1S2` (centres unmarked) [Zaltoprofen, zaltoprofen], the “EMT suppressive effect (Collagen Type 1 assessment)” value with Collagen Type 1 is “significant suppressive effect for EMT”. Besides, in the series with Collagen Type 1 (versus Vehicle administration group, p<0.05), the “Stained volume of Collagen Type 1” value is on record as “significantly decreases”. Also, in the series on mouse, the “Formation of a drusen-like structure (HE staining)” value is “apparently suppressed”, the “Immunostaining of E-Cadherin in retinal epithelial cells” value is “strongly positive staining was observed between cells”, the “Immunostaining of Fibronectin” value is “the signal strength of staining was small” and the “Shape of retinal pigment epithelial cells” value is on record as “cells keeping a cubic shape were abundantly observed”. For the same compound, the Cmax (commonly the highest concentration seen after dosing) in series [1] (Pharmaceutical Interview Form, single-dose administration, read-out: Cmax) was 20.4 µM. In addition, the Cmax in series [1] (Soleton tablet 80 Interview Form, single-dose administration, depending on the kind of the additive, read-out: Cmax) is 16.8 µM. Moreover, the Cmax in series [1] (setting [2]) is 20.4 µM. In series [1] (setting [3]), the Cmax is 20.4 µM.
Take `O=C(O)CCc1nc(-c2ccccc2)c(-c2ccccc2)o1` [Oxaprozin, oxaprozin]: in the series on mouse, the “Formation of a drusen-like structure (HE staining)” value is “apparently suppressed”, the “Immunostaining of E-Cadherin in retinal epithelial cells” value is “strongly positive staining was observed between cells”, the “Immunostaining of Fibronectin” value is listed as “the signal strength of staining was small” and the “Shape of retinal pigment epithelial cells” value is “cells keeping a cubic shape were abundantly observed”. Further, in series [1] (Alvo tablet Interview Form, repeated-dose administration, read-out: Cmax), the Cmax was 341 µM. The Cmax in series [1] (setting [2]) is 341 µM. Moreover, the Cmax in series [1] (setting [3]) is 341 µM.

The record behind these values is patent publication US10761087B2, “Choroidal neovascularization suppressor or drusen formation suppressor, and method for assessing or screening for same” (Link Genomics, Inc., priority 2015, dated 2020).
